Experimental data as given in patent US10316050B2, “PT (IV) complexes containing 4,4′-disubstituted-2,2′-bipyridyl and their use in cancer therapy” (THE BOARD OF REGENTS OF THE NEVADA SYSTEM OF HIGHER …, priority 2014, dated 2019).
Like-named read-outs stand apart in the source and are kept apart here.

How the values were obtained:
Assay type in all cases: cell-based, human
[1] = system: DU145 prostate cancer cells; conditions: for EC50: read-out: EC50 (effective concentration that resulted in 50% cell viability); for anti-proliferative activity compared to cisplatin (in words): DU145, one and 48 hours treatment (FIG. 8H)
Description: (§1) Human breast (HCC38, MCF-7, MDA-MB-231, SK-BR-3, T-47D, and ZR-75-1), lung (A549 and H520), and prostate (DU145 and PC-3) cancer cell lines were obtained from American Culture Type Collection (ATCC). The HCC38, MCF-7, MDA-MB-231, SK-BR-3, T-47D, ZR-75-1, and A549 cells were grown in MEM supplemented with 10% FBS, 25 mM HEPES buffer (pH 7.4), penicillin (100 U/mL), and streptomycin (100 μg/mL). The H520, DU145, and PC-3 cell lines were grown in RPMI-1640 supplemented with 10% FBS, 25 mM HEPES buffer (pH 7.4), penicillin (100 U/mL), and streptomycin (100 μg/mL). All cell lines were maintained at 37° C. in a humidified, 5% CO2 atmosphere.
(§2) Cells were cultured at a density of 2-3.5×10^3 cells per well in flat bottomed 96-well plates in 100 μL of complete growth medium and incubated for 2 days to reach ˜50% confluence. The cells were then treated with solvent or the appropriate drugs (CDDP stock was dissolved in 0.15 M NaCl, carboplatin stock was dissolved in 5% glucose, synthesized Pt(IV) complexes were dissolved in DMSO) for 1 hour, washed three times with 100 μL PBS, and incubated in 100 μL of fresh medium. After 2 days, the medium was replaced with 120 μL of medium containing CellTiter 96® Aqueous One Solution Reagent (MTS reagent) (Promega, Madison, Wis.). The cells were incubated at 37° C. for 4 hours and the cell viability was determined by measuring the absorbance at 490 nm using a Tecan Infinite M1000 microplate reader. The 48 h treatment was done in a similar manner, except the cells were not washed after treatment and the MTS reagent was immediately added. Viability of treated groups was calculated as a percent of control and graphed with GraphPad Prism.
(§3) The anti-proliferative activities of Pt(IV) complexes were determined in two lung (A549 and H520), two prostate (DU145 and PC-3), and six breast (HCC38, MCF-7, MDA-MB-231, SK-BR-3, T-47D, and ZR-75-1) cancer cell lines. The cells were treated with increasing concentrations of cisplatin (CDDP), carboplatin, or the Pt(IV) complexes for 1 or 48 hours, and the viability was measured using an MTS colorimetric cell proliferation assay. Graphs of the results are shown for DU145 (FIG. 8A), PC-3 (FIG. 8B), SK-BR-3 (FIG. 8C), ZR-75-1 (FIG. 8D), A549 (FIG. 8E), and MCF-7 (FIG. 8F).
(§4) The anti-proliferative activities of certain Pt(II) complexes were determined in DU145, PC-3, and SK-BR-3 cells. The cells were treated with increasing concentrations of cisplatin (CDDP) or the Pt(II) complexes for 1 or 48 hours, and the viability was measured using an MTS colorimetric cell proliferation assay.

A549 lung cancer cells = test: MTS cell viability assay, A549; conditions: read-out: EC50 (effective concentration that resulted in 50% cell viability)
Description: as §1, §2, §3

[2] = system: MCF-7 breast cancer cells; test: MTS cell viability assay, MCF-7; conditions: read-out: EC50 (effective concentration that resulted in 50% cell viability)
Description: as §1, §2, §3

[3] = system: T-47D breast cancer cells; test: MTS cell viability assay, T-47D
Description: as §1, §2, §3

[4] = system: ZR-75-1 breast cancer cells; test: MTS cell viability assay, ZR-75-1; conditions: read-out: EC50 (effective concentration that resulted in 50% cell viability)
Description: as §1, §2, §3

H520 lung cancer cells = test: MTS cell viability assay, H520; conditions: read-out: EC50 (effective concentration that resulted in 50% cell viability)
Description: as §1, §2, §3

[5] = system: HCC38 breast cancer cells; test: MTS cell viability assay, HCC38; conditions: read-out: EC50 (effective concentration that resulted in 50% cell viability)
Description: as §1, §2, §3

[6] = system: PC-3 prostate cancer cells; test: MTS cell viability assay, PC-3; conditions: for EC50: read-out: EC50 (effective concentration that resulted in 50% cell viability); for anti-proliferative activity compared to cisplatin (in words): PC-3, one and 48 hours treatment (FIG. 8I)
Description: as §1, §2, §3, §4

[7] = system: SK-BR-3 breast cancer cells; test: MTS cell viability assay, SK-BR-3; conditions: for EC50: read-out: EC50 (effective concentration that resulted in 50% cell viability); for anti-proliferative activity compared to cisplatin (in words): SK-BR-3, one and 48 hours treatment (FIG. 8G)
Description: as §1, §2, §3, §4

[8] = system: MDA-MB-231 breast cancer cells; test: MTS cell viability assay, MDA-MB-231; conditions: read-out: EC50 (effective concentration that resulted in 50% cell viability)
Description: as §1, §2, §3

[9] = 1 h treatment, Table 2, read-out: EC50 (effective concentration that resulted in 50% cell viability)
[10] = 48 h treatment, Table 4, read-out: EC50 (effective concentration that resulted in 50% cell viability)
[11] = ZR-75-1, 1 h treatment, Table 2
[12] = ZR-75-1, 48 h treatment, Table 4
[13] = SK-BR-3, 1 h treatment, Table 2
[14] = SK-BR-3, 48 h treatment, Table 4
[15] = MDA-MB-231, 1 h treatment, Table 2
[16] = MDA-MB-231, 48 h treatment, Table 4

Structure (SMILES)	EC50 ([1]; DU145, 1 h treatment, Table 2) [µM]	EC50 ([1]; DU145, 48 h treatment, Table 4) [µM]	EC50 (A549 lung cancer cells; A549, 1 h treatment, Table 2) [µM]	EC50 (A549 lung cancer cells; A549, 48 h treatment, Table 4) [µM]	EC50 ([2]; MCF-7, 1 h treatment, Table 2) [µM]	EC50 ([2]; MCF-7, 48 h treatment, Table 4) [µM]	EC50 [3, 9] [µM]	EC50 [3, 10] [µM]	EC50 [4, 11] [µM]	EC50 [4, 12] [µM]	EC50 (H520 lung cancer cells; H520, 1 h treatment, Table 2) [µM]	EC50 (H520 lung cancer cells; H520, 48 h treatment, Table 4) [µM]	EC50 ([5]; HCC38, 1 h treatment, Table 2) [µM]	EC50 ([5]; HCC38, 48 h treatment, Table 4) [µM]	EC50 ([6]; PC-3, 1 h treatment, Table 2) [µM]	EC50 ([6]; PC-3, 48 h treatment, Table 4) [µM]	EC50 [7, 13] [µM]	EC50 [7, 14] [µM]	EC50 [8, 15] [µM]	EC50 [8, 16] [µM]	also measured
N.N.O=C([O-])C1(C(=O)[O-])CCC1.[Pt+2] [Carboplatin, carboplatin, reference compound]	> 1000	400 ± 100	> 1000	300 ± 30	> 1000	800 ± 100	–	–	–	–	–	–	–	–	–	–	–	–	–	–	effect on cell viability (in words) ([1]; DU145, 1 hour treatment (FIG. 8A, top), up to 1 mM carboplatin, 100 μM Pt(IV)-1C, 50 μM Pt(IV)-2C): no effect; EC50 ([1]; DU145, 1 h treatment, Table 3): > 1000 µM; EC50 ([1]; DU145, 48 h, Table 5): 400 ± 100 µM; EC50 (A549 lung cancer cells; A549, 1 h treatment, Table 3): > 1000 µM; EC50 (A549 lung cancer cells; A549, 48 h, Table 5): 300 ± 30 µM; EC50 ([2]; MCF-7, 1 h treatment, Table 3): > 1000 µM; EC50 ([2]; MCF-7, 48 h, Table 5): 800 ± 100 µM
COc1ccnc(-c2cc(OC)ccn2)c1.[Cl][Pt][Cl] [Pt(II)-1C]	40 ± 10	24 ± 2	> 100	> 100	> 100	> 100	20 ± 1	21 ± 1	67 ± 27	26 ± 1	> 100	30 ± 2	80 ± 20	57 ± 2	> 100	40 ± 7	19 ± 5	23 ± 2	> 100	> 100	–
CCOc1ccnc(-c2cc(OCC)ccn2)c1.[Cl][Pt][Cl] [Pt(II)-2C]	20 ± 5	11 ± 4	> 100	66 ± 7	> 100	> 100	5 ± 2	2.2 ± 0.4	58 ± 15	16.5	> 100	21 ± 1	18 ± 4	20 ± 3	22 ± 5	21 ± 7	2.2 ± 0.2	1.8	30 ± 20	20 ± 6	–
CCCOc1ccnc(-c2cc(OCCC)ccn2)c1.[Cl][Pt][Cl] [Pt(II)-3C]	6 ± 1	4 ± 2	48 ± 3	17 ± 1	100	19 ± 4	2.4 ± 0.1	1.9 ± 0.1	8.9 ± 0.4	5 ± 1	40 ± 20	13 ± 5	3 ± 2	4.7 ± 0.5	5 ± 1	5.1 ± 0.8	1.81 ± 0.03	1.73 ± 0.01	4 ± 2	2.2 ± 0.1	–
CCCCCOc1ccnc(-c2cc(OCCCCC)ccn2)c1.[Cl][Pt][Cl] [Pt(II)-5C]	8 ± 2	6 ± 0.7	18 ± 1	16.5 ± 0.5	21 ± 5	15 ± 7	9 ± 3	3 ± 1	8 ± 3	6.6 ± 0.7	23 ± 5	17 ± 3	13 ± 5	10 ± 2	7 ± 1	7.3 ± 0.7	2.8 ± 0.8	2.4 ± 0.4	4 ± 2	4.1 ± 0.2	–
CCCCCCOc1ccnc(-c2cc(OCCCCCC)ccn2)c1.[Cl][Pt][Cl] [Pt(II)-6C]	2.1 ± 0.1	1.9 ± 0.1	66 ± 16	19.1 ± 0.8	80 ± 30	12 ± 4	3.2 ± 0.8	2.1 ± 0.2	7 ± 2	6.4 ± 0.4	> 50	18 ± 1	16 ± 5	14 ± 4	2.24 ± 0.03	2.7 ± 0.1	1.84 ± 0.03	1.8	6 ± 3	4 ± 1	–
CCOCCOCCOC(=O)c1ccnc(-c2cc(C(=O)OCCOCCOCC)ccn2)c1.[Cl][Pt][Cl] [Pt(II)-COO(C2O)2C2]	–	–	–	–	–	–	–	–	–	–	–	–	–	–	–	–	–	–	–	–	anti-proliferative activity compared to cisplatin (in words) [1]: not as effective as cisplatin; anti-proliferative activity compared to cisplatin (in words) [6]: not as effective as cisplatin; reduction in cell viability, one hour versus 48 hours treatment ([7]; SK-BR-3 (FIG. 8G)): greater reduction in cell viability than when they were treated for 48 hours; anti-proliferative activity compared to cisplatin (in words) [7]: not as effective as cisplatin
COC(=O)c1ccnc(-c2cc(C(=O)OC)ccn2)c1.[Cl][Pt][Cl] [Pt(II)-COOC1]	–	–	–	–	–	–	–	–	–	–	–	–	–	–	–	–	–	–	–	–	anti-proliferative activity compared to cisplatin (in words) [1]: generally more effective than cisplatin; anti-proliferative activity compared to cisplatin (in words) [6]: generally more effective than cisplatin; anti-proliferative activity compared to cisplatin (in words) [7]: generally more effective than cisplatin
CCOC(=O)c1ccnc(-c2cc(C(=O)OCC)ccn2)c1.[Cl][Pt][Cl] [Pt(II)-COOC2]	–	–	–	–	–	–	–	–	–	–	–	–	–	–	–	–	–	–	–	–	anti-proliferative activity compared to cisplatin (in words) [1]: generally more effective than cisplatin; anti-proliferative activity compared to cisplatin (in words) [6]: generally more effective than cisplatin; anti-proliferative activity compared to cisplatin (in words) [7]: generally more effective than cisplatin
CCCCCCCCOC(=O)c1ccnc(-c2cc(C(=O)OCCCCCCCC)ccn2)c1.[Cl][Pt][Cl] [Pt(II)-COOC8]	–	–	–	–	–	–	–	–	–	–	–	–	–	–	–	–	–	–	–	–	anti-proliferative activity compared to cisplatin (in words) [1]: generally more effective than cisplatin; anti-proliferative activity compared to cisplatin (in words) [6]: generally more effective than cisplatin; anti-proliferative activity compared to cisplatin (in words) [7]: generally more effective than cisplatin
